Where “and” joins values, the source holds several entries; their conditions need not be identical. Identical values can stand only once. Entries after “also recorded” stand apart in the source; their conditions may differ.
Legend:
BTK C481S mutant = conditions: cited from earlier work
MOLM-14 cells = test: AlamarBlue cell viability assay, MOLM-14; conditions: for Cell viability, MOML-14: Supplementary Figure 7, replicates
Description: The IC50 was calculated using GraphPad Prism software with a four-parameter dose-response curve fit.

Mino = test: IC50 in MCL cell lines (Supplementary Table 2), Mino; conditions: Mino; triplicates
Rec-1 = test: IC50 in MCL cell lines (Supplementary Table 2), Rec-1; conditions: for Cell Viability (%): Rec-1 cells, replicate wells
Jeko-1 = test: IC50 in MCL cell lines (Supplementary Table 2), Jeko-1; conditions: for Cell Viability (%): Jeko-1 cells, replicate wells
Maver-1 = test: IC50 in MCL cell lines (Supplementary Table 2), Maver-1; conditions: Maver-1; triplicates
NanoLuc-CRBN fusion = target: T1, NanoLuc-CRBN fusion (Homo sapiens, UniProt Q96SW2); test: NanoBRET CRBN in-cell target engagement assay; type: cell-based; conditions: Figure 3h, replicates
T1 construct: host or cells: HEK 293T/17
T1 sequence (Q96SW2 whole entry, the tested form may be a part): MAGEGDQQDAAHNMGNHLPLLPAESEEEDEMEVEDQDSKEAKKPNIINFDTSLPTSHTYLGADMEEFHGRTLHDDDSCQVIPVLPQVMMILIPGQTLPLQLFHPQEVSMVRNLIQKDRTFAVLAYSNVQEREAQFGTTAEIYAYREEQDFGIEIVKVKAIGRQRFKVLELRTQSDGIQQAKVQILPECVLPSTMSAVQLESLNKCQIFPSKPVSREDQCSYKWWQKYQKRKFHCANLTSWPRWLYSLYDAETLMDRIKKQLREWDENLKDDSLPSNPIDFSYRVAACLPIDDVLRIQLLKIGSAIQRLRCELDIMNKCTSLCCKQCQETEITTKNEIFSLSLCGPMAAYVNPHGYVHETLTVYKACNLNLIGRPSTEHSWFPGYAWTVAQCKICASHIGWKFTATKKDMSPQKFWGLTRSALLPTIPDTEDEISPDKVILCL
T1 sequence (Q16531 whole entry partner, the tested form may be a part): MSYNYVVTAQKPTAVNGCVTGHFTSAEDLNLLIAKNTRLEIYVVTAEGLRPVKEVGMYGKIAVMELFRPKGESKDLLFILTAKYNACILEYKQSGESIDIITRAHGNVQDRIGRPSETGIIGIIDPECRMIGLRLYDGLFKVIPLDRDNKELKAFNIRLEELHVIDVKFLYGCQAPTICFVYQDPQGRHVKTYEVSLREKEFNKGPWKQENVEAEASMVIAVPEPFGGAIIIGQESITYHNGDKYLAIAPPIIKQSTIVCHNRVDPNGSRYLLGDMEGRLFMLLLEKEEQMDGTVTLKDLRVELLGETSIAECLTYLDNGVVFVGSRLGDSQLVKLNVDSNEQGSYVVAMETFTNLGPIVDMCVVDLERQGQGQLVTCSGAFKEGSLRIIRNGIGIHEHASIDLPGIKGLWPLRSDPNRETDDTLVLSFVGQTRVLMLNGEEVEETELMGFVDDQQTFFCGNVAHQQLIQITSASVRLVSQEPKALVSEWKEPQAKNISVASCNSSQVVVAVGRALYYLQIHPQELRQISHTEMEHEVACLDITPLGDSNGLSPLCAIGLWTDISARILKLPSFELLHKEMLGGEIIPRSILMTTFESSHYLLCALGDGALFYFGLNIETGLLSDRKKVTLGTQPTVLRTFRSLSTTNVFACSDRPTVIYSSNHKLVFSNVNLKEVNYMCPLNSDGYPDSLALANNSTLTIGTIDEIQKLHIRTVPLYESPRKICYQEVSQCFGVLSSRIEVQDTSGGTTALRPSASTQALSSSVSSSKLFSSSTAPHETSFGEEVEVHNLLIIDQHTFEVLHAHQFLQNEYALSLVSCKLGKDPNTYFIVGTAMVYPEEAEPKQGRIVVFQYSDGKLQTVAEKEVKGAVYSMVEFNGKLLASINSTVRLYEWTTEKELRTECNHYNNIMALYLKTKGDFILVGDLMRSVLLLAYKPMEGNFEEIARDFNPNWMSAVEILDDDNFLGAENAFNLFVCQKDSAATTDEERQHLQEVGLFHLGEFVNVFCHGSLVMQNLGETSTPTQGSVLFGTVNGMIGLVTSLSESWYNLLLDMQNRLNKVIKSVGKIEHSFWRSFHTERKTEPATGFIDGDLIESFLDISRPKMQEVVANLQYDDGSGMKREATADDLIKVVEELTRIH
Description: The target engagement assay for BTK or CRBN was from Promega (BTK kit, Cat. No. N2500; CRBN kit, Cat. No. CS1810C136) and was performed according to the manufacture’s instruction with some modifications. […] After 2 h incubation, the 3X Nano-Glo® Substrate with NanoLuc® extracellular inhibitor were added to cells and developed for 3 min at room temperature. BRET signals were collected using a BioTek SYNERGY H1 microplate reader equipped with a 450/80-nm BP filter for donor emission and a 610-nm LP filter for acceptor emission. BRET Ratio was calculated with the equation: [(Acceptor sample/Donor sample)–(Acceptor no tracer control/Donor no tracer control)] × 1000. The IC50 of the compound against its BTK or CRBN tracer was calculated using GraphPad Prism software.

[1] = test system: truncated Cereblon protein; test: CRBN binding assay (fluorescence quenching); conditions: for Fluorescence Intensity: Supplementary Figure 11, replicates
Description: The Kd values of compounds to CRBN were measured based on fluorescence quenching after compounds binding to CRBN. […] All the compounds were dissolved in DMSO (10 mM) as stock solutions. The final drug concentration is 100 nM. […] Fluorescence intensity values for control wells (assay buffer only) were subtracted from each data point prior to analysis. The Kd was calculated using GraphPad Prism with the following equation curve fit. I=I0−If×Kd/P0+Kd+If

BTK = BTK (Homo sapiens, UniProt Q06187); test: BTK degradation in MOLM-14 cells (western blot); type: cell-based; set-up: endogenous in cells; host or cells: MOLM-14
BTK, sequence (Q06187 whole entry): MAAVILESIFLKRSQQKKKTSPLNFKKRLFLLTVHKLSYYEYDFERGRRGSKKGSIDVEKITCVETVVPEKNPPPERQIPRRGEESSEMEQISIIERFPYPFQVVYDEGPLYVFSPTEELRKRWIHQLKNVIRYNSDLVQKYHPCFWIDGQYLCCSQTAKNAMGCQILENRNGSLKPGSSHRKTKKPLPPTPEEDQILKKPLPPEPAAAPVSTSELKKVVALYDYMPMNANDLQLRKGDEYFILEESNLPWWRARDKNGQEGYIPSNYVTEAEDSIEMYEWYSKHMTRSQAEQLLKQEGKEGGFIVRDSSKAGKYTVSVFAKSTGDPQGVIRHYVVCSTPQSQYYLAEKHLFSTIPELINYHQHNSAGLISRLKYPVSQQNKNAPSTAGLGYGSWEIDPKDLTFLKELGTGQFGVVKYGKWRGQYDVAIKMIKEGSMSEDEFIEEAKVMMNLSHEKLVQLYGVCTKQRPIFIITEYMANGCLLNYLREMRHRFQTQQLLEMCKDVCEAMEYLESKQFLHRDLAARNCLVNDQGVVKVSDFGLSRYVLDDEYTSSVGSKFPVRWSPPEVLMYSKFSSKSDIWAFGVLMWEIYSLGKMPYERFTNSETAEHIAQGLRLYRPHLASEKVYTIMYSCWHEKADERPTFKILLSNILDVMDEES

SMILES: C=CC(=O)N1CCC[C@@H](n2nc(-c3ccc(Oc4ccccc4)cc3)c3c(N)ncnc32)C1 [IRC-Ctrl, ibrutinib, reference compound]
- IC50 (BTK C481S mutant): 4.6 nM
- IC50 (MOLM-14 cells; Homo sapiens, MOLM-14, 72 h, read-out: Cell viability IC50): 330 nM
- Cell viability, MOML-14 (MOLM-14 cells; drug concentration 1.00E-05 M): 2.829 and 3.671 and 10.6075 and 4.63 and 7.964
- Cell viability, MOML-14 (MOLM-14 cells; drug concentration 1.60E-08 M): 78.5123 and 71.6258 and 103.431 and 81.3409
- Cell viability, MOML-14 (MOLM-14 cells; drug concentration 2.00E-06 M): 11.3315 and 13.8066 and 22.1242 and 13.453 and 22.4778
- Cell viability, MOML-14 (MOLM-14 cells; drug concentration 3.20E-09 M): 74.4713 and 69.3023 and 89.0692 and 86.5941 and 80.2465
- Cell viability, MOML-14 (MOLM-14 cells; drug concentration 4.00E-07 M): 35.4256 and 44.6356 and 55.26 and 47.599 and 43.2718
- Cell viability, MOML-14 (MOLM-14 cells; drug concentration 6.40E-10 M): 87.7559 and 71.8279 and 83.9002
- Cell viability, MOML-14 (MOLM-14 cells; drug concentration 8.00E-08 M): 71.3059 and 57.3983 and 86.3921 and 79.7919 and 76.879
- IC50 (Mino): 3800 nM
- IC50 (Rec-1; Rec-1, triplicates): 6200 nM
- Cell Viability (%) (Rec-1; 1.50E-05 M): 8.535% and 9.796% and 10.5906%
- Cell Viability (%) (Rec-1; 1.88E-06 M): 74.3495% and 75.6404% and 76.9194%
- Cell Viability (%) (Rec-1; 3.00E-05 M): 2.364% and 2.247% and 2.265%
- Cell Viability (%) (Rec-1; 3.75E-06 M): 66.2063%
- Cell Viability (%) (Rec-1; 4.69E-07 M): 84.8624% and 81.0762% and 81.5842%
- Cell Viability (%) (Rec-1; 7.50E-06 M): 44.5947% and 45.7572% and 45.7871%
- Cell Viability (%) (Rec-1; 9.38E-07 M): 81.9548% and 81.1808% and 88.2512%
- IC50 (Jeko-1; Jeko-1, triplicates): 300 nM
- Cell Viability (%) (Jeko-1; 1.50E-05 M): 2.151% and 2.02% and 1.9313%
- Cell Viability (%) (Jeko-1; 1.88E-06 M): 2.568% and 2.43% and 2.412%
- Cell Viability (%) (Jeko-1; 3.00E-05 M): 2.333% and 2.338% and 2.111%
- Cell Viability (%) (Jeko-1; 3.75E-06 M): 2.338% and 2.397% and 2.358%
- Cell Viability (%) (Jeko-1; 4.69E-07 M): 5.039% and 20.4969% and 18.3979%
- Cell Viability (%) (Jeko-1; 7.50E-06 M): 2.252% and 2.304% and 1.966%
- Cell Viability (%) (Jeko-1; 9.38E-07 M): 2.5504% and 5.547% and 2.871%
- IC50 (Maver-1): 5400 nM

SMILES: Nc1cccc2c1C(=O)N(C1CCC(=O)NC1=O)C2=O (stereo not shown) [Pomalidomide, pomalidomide, reference compound]
- NanoBRET(%) (NanoLuc-CRBN fusion; drug concentration 1.00E-05 M): 8.749% and 2.427%
- NanoBRET(%) (NanoLuc-CRBN fusion; drug concentration 1.60E-08 M): 79.9835% and 62.224% and 75.9099%
- NanoBRET(%) (NanoLuc-CRBN fusion; drug concentration 2.00E-06 M): 10.9943% and 16.7844%
- NanoBRET(%) (NanoLuc-CRBN fusion; drug concentration 3.20E-09 M): 86.2914% and 88.5513% and 84.0314%
- NanoBRET(%) (NanoLuc-CRBN fusion; drug concentration 4.00E-07 M): 54.7588% and 35.141% and 58.1892%
- NanoBRET(%) (NanoLuc-CRBN fusion; drug concentration 8.00E-08 M): 88.9359% and 73.8405% and 79.0012%
- Fluorescence Intensity ([1]; CRBN 0 μM): 9876.2 and 9503.2 and 9587.2
- Fluorescence Intensity ([1]; CRBN 0.734375 μM): 7603.2 and 7913.2 and 7829.2
- Fluorescence Intensity ([1]; CRBN 1.46875 μM): 6654.2 and 6940.2 and 6542.2
- Fluorescence Intensity ([1]; CRBN 2.9375 μM): 5927.2 and 5996.2 and 5981.2
- Fluorescence Intensity ([1]; CRBN 5.875 μM): 5201.2 and 5168.2 and 5152.2
- Fluorescence Intensity ([1]; CRBN 11.75 μM): 4654.2 and 4688.2 and 4502.2
- Fluorescence Intensity ([1]; CRBN 23.5 μM): 4529.2 and 4338.2 and 4613.2
- Kd ([1]; truncated Cereblon protein, fluorescence quenching, triplicates): 1400 nM
- Quantification anti-BTK / anti-β-actin (BTK level vs DMSO) (BTK; Figure 2d, DMSO = 100 (mean)): 81.7787
- BTK degradation (in words) (BTK; MOLM-14 cells, 200 nM, 24 h (Fig. 2d)): Neither RC-Ctrl, nor pomalidomide, nor a combination of both caused BTK degradation; also recorded: neither the RC-1 warhead, nor pomalidomide, nor a combination of both caused BTK degradation

— publication PMC7450057, “Enhancing intracellular accumulation and target engagement of PROTACs with reversible covalent chemistry” (Nature Communications, 2020)
